Our source for the Activity and inhibition values is ChEMBL document CHEMBL2016526, “3-(N-arylsulfamoyl)benzamides, inhibitors of human sirtuin type 2 (SIRT2)” (Bioorg Med Chem Lett, 2012).

Assay [1] addresses T1, NAD-dependent protein deacetylase sirtuin-2 (Homo sapiens) (UniProt Q8IXJ6).
T1 sequence (whole entry): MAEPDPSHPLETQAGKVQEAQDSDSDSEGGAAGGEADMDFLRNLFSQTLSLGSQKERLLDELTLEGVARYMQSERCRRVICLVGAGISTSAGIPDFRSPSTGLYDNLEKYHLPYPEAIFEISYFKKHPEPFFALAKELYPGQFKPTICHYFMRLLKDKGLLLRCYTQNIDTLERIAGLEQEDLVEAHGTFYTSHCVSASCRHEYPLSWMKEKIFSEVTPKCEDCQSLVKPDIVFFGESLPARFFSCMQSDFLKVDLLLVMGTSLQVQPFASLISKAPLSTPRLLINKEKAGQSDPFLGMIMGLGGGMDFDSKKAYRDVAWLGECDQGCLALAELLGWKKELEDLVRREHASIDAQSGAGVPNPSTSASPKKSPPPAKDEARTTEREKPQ
The experiment in a line: Inhibition of recombinant SIRT2 assessed as lysine deacetylation at 10 uM relative to control. Set-up: scale not given: the % may be the effect or the level left.

The target in assay [2] is T2, NAD-dependent protein deacetylase sirtuin-1 (Homo sapiens) (UniProt Q96EB6).
T2 sequence (whole entry): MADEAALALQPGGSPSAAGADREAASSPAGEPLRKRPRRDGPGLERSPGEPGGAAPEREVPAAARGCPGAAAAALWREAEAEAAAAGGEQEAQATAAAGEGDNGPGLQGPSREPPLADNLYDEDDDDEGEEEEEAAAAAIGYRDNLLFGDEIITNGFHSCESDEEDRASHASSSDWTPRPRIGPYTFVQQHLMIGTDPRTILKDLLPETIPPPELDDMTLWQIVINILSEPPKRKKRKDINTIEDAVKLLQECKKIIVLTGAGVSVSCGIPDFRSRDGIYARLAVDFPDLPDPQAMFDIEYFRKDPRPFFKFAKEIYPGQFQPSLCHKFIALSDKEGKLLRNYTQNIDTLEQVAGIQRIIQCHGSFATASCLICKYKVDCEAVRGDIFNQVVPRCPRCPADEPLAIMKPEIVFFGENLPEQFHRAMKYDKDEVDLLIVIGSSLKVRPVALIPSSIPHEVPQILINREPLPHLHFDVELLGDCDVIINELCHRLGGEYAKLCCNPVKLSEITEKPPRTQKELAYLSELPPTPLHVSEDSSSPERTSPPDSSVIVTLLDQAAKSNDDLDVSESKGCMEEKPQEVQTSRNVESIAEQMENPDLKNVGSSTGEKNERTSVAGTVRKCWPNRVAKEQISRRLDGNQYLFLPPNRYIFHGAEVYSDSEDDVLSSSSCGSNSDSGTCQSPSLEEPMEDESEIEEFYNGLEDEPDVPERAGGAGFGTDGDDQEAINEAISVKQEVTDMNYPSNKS
The experiment in a line: Inhibition of recombinant SIRT1 assessed as lysine deacetylation at 10 uM.

Assay [3] addresses T3, NAD-dependent protein deacetylase sirtuin-3, mitochondrial (Homo sapiens) (UniProt Q9NTG7).
T3 sequence (whole entry): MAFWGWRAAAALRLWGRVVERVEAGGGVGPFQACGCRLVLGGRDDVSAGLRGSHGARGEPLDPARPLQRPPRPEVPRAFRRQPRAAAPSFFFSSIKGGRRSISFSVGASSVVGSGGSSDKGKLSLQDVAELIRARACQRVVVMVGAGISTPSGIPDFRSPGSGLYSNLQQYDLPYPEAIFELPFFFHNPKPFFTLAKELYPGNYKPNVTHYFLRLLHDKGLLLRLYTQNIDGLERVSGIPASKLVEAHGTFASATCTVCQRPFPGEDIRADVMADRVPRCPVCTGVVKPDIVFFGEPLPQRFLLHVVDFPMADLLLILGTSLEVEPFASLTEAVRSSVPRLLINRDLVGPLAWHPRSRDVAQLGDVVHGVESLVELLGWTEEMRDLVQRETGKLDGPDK
Nature of the assay: Inhibition of recombinant SIRT3 assessed as lysine deacetylation at 10 uM relative to control.

For assay [4], the target named is T1, NAD-dependent protein deacetylase sirtuin-2 (Homo sapiens). The experiment in a line: Inhibition of recombinant SIRT2 assessed as lysine deacetylation at 1 to 50 uM.
Assay [5] deals with T3, NAD-dependent protein deacetylase sirtuin-3, mitochondrial (Homo sapiens). The experiment in a line: Inhibition of recombinant SIRT3 assessed as lysine deacetylation up to 50 uM.
In assay [6] the target is T1, NAD-dependent protein deacetylase sirtuin-2 (Homo sapiens). The experiment in a line: Inhibition of recombinant SIRT2 assessed as lysine deacetylation at 6.25 to 25 uM.
Assay [7] deals with T2, NAD-dependent protein deacetylase sirtuin-1 (Homo sapiens). Nature of the assay: Inhibition of recombinant SIRT1 assessed as lysine deacetylation up to 50 uM.
The target of assay [8] is T1, NAD-dependent protein deacetylase sirtuin-2 (Homo sapiens). Nature of the assay: Inhibition of recombinant SIRT2 assessed as lysine deacetylation at 25 uM relative to control. Set-up: scale not given: the % may be the effect or the level left.
Assay [9] has the same target. The experiment in a line: Inhibition of recombinant SIRT2 assessed as lysine deacetylation at 50 uM relative to control. Set-up: scale not given: the % may be the effect or the level left.

Active and inactive are the calls of the source. No cut-off for these calls is given here.

In the case of `CN(C(=O)c1cccc(S(=O)(=O)N(C)c2ccc(Cl)cc2)c1)c1ccc(Br)cc1`, in assay [1], the Activity amounted to 72%.
Turning to `CN(C(=O)c1cccc(S(=O)(=O)N(C)c2ccc(Cl)cc2)c1)c1ccc(Cl)cc1`, in [2], the inhibition result is “inactive”. Moreover, in [3], the inhibition amounted to 5%. Moreover, the inhibition entry in assay [4] is “Active”.
Turning to `CN(C(=O)c1cccc(S(=O)(=O)N(C)c2ccc(Br)cc2)c1)c1ccc(Br)cc1`, the inhibition entry in assay [5] and in assay [7] was “inactive” throughout. The inhibition entry in [6] and in assay [4] was “Active” throughout.
In the case of `O=C(Nc1ccc(Br)cc1)c1cccc(S(=O)(=O)N(Cc2ccccc2)c2ccc(Br)cc2)c1`, the Activity in assay [8] turned out to be 80%.
Take `CN(C(=O)c1cccc(S(=O)(=O)N(C)c2ccc(Br)cc2)c1)c1ccc(Cl)cc1`: the inhibition entry in [2] and in assay [3] was “inactive” each time. Also, in assay [4], the inhibition entry is “Active”. Further, the Activity in assay [1] was 54%.
As to `O=C(Nc1cccc([N+](=O)[O-])c1)c1cccc(S(=O)(=O)N2CCCCCC2)c1`, the inhibition entry in [7] was “Active”.
As to `O=C(Nc1ccc(Br)cc1)c1cccc(S(=O)(=O)Nc2ccc(Br)cc2)c1`, the Activity in assay [8] worked out at 85%.
For the molecule `CN(C(=O)c1cccc(S(=O)(=O)N(C)c2ccc(C(F)(F)F)cc2)c1)c1ccc(Br)cc1`, the inhibition entry in assay [2] and in assay [3] was “inactive” in each case. The Activity in assay [1] worked out at 55%.
As for `CN(c1ccc(Br)cc1)S(=O)(=O)c1cccc(C(=O)Nc2ccc(Br)cc2)c1`, the Activity in [8] came to 56%. Besides, the inhibition entry in assay [5] and in assay [7] was “inactive” throughout. Further, in assay [6], the inhibition result is “Active”.
With `CN(C(=O)c1cccc(S(=O)(=O)N(C)c2ccc(Br)cc2)c1)c1ccc(C(F)(F)F)cc1`, in assay [9], the Activity came out at 76%.
Consider `CCN(c1ccc(Br)cc1)S(=O)(=O)c1cccc(C(=O)Nc2ccc(Br)cc2)c1`, for which the Activity in assay [8] turned out to be 82%.
`C=CCN(c1ccc(Br)cc1)S(=O)(=O)c1cccc(C(=O)Nc2ccc(Br)cc2)c1`: the Activity in assay [8] was found to be 92%.
Regarding `CN(C(=O)c1cccc(S(=O)(=O)N(C)c2ccc(Br)cc2)c1)c1ccc(F)cc1`, in [9], the Activity was 57%.
